Read-outs that look alike come from different tables or passages of the source.
Legend:
[1] = target: smooth muscle angiotensin II receptor; test: Assay A: Angiotensin II Binding Activity (displacement of 125I-angiotensin II, rat uterine membrane preparation); details: 50% displacement of specifically bound 125I-AII, rat uterine membranes, 25° C., 60 min, pH 7.5
Procedure: Assay A: Angiotensin II Binding Activity
Compounds of the invention were tested for ability to bind to the smooth muscle angiotensin II receptor using a rat uterine membrane preparation. Angiotensin II (AII) was purchased from Peninsula Labs. ^125 I-angiotensin II (specific activity of 2200 Ci/mmol) was purchased from Du Pont-New England Nuclear. Other chemicals were obtained from Sigma Chemical Co. This assay was carried out according to the method of Douglas et al [Endocrinology, 106, 120-124 (1980)]. Rat uterine membranes were prepared from fresh tissue. All procedures were carried out at 4° C. Uteri were stripped of fat and homogenized in phosphate-buffered saline at pH 7.4 containing 5 mM EDTA. The homogenate was centrifuged at 1500×g for 20 min., and the supernatant was recentrifuged at 100,000×g for 60 min. The pellet was resuspended in buffer consisting of 2 mM EDTA and 50 mM Tris-HCl (pH 7.5) to a final protein concentration of 4 mg/ml. Assay tubes were charged with 0.25 ml of a solution containing 5 mM MgCl2, 2 mM EDTA, 0.5% bovine serum albumin, 50 mM Tris-HCl, pH 7.5 and ^125 I-AII (approximately 10^5 cpm) in the absence or in the presence of unlabelled ligand. The reaction was initiated by the addition of membrane protein and the mixture was incubated at 25° C. for 60 min. The incubation was terminated with ice-cold 50 mM Tris-HCl (pH 7.5) and the mixture was filtered to separate membrane-bound labeled peptide from the free ligand. The incubation tube and filter were washed with ice-cold buffer. Filters were assayed for radioactivity in a Micromedic gamma counter. Nonspecific binding was defined as binding in the presence of 10 μM of unlabelled AII. Specific binding was calculated as total binding minus nonspecific binding. The receptor binding affinity of an AII antagonist compound was indicated by the concentration (IC50) of the tested AII antagonist which gives 50% displacement of the total specifically bound ^125 I-AII from the high affinity AII receptor. Binding data were analyzed by a nonlinear least-squares curve fitting program.

[2] = target: T1, rabbit aortic rings (angiotensin II contraction) (Oryctolagus cuniculus, UniProt P34976); test: Assay B: In Vitro Vascular Smooth Muscle Response for AII (rabbit aortic rings); format: cell-based, rabbit (male New Zealand white); details: rabbit aorta rings, antagonist 10^-5 M for 5 min, 37° C., read-out: Assay B pA2 (converted)
T1 construct: The thoracic aorta was removed, cleaned of adherent fat and connective tissue and then cut into 3-mm ring segments; from tissue; host or cells: rabbit thoracic aorta rings, endothelium removed
T1 sequence (P34976 1-359): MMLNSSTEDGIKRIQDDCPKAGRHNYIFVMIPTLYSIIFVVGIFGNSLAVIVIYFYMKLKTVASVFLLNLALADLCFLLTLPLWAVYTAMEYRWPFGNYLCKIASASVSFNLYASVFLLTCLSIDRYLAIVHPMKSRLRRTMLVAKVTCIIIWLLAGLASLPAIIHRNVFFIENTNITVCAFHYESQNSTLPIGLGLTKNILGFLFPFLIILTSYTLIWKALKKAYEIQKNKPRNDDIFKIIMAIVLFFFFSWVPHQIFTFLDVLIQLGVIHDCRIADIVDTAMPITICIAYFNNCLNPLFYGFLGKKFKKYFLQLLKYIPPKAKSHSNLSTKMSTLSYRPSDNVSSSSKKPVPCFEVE
Procedure: Assay B: In Vitro Vascular Smooth Muscle-Response for AII
The compounds of the invention were tested for antagonist activity in rabbit aortic rings. Male New Zealand white rabbits (2-2.5 kg) were sacrificed using an overdose of pentobarbital and exsanguinated via the carotid arteries. The thoracic aorta was removed, cleaned of adherent fat and connective tissue and then cut into 3-mm ring segments. The endothelium was removed from the rings by gently sliding a rolled-up piece of filter paper into the vessel lumen. The rings were then mounted in a water-jacketed tissue bath, maintained at 37° C., between moveable and fixed ends of a stainless steel wire with the moveable end attached to an FT03 Grass transducer coupled to a Model 7D Grass Polygraph for recording isometric force responses. The bath was filled with 20 ml of oxygenated (95% oxygen/5% carbon dioxide) Krebs solution of the following composition (mM): 130 NaCl, 15 NaHCO3, […], 1.2 NaH2 PO4, 1.2 MgSO4, 2.5 CaCl2, and 11.4 glucose. The preparations were equilibrated for one hour before approximately one gram of passive tension was placed on the rings. Angiotensin II concentration-response curves were then recorded (3×10^-10 to 1×10^-5 M). Each concentration of AII was allowed to elicit its maximal contraction, and then AII was washed out repeatedly for 30 minutes before rechallenging with a higher concentration of AII. Aorta rings were exposed to the test antagonist at 10^-5 M for 5 minutes before challenging with AII. Adjacent segments of the same aorta ring were used for all concentration-response curves in the presence or absence of the test antagonist. The effectiveness of the test compound was expressed in terms of pA2 values and were calculated according to H. O. Schild [Br. J. Pharmacol. Chemother., 2, 189-206 (1947)]. The pA2 value is the concentration of the antagonist which increases the IC50 value for AII by a factor of two. Each test antagonist was evaluated in aorta rings from two rabbits.

[3] = first of two values in the cell (rings from two rabbits)
[4] = second of two values in the cell (rings from two rabbits)

| Structure (SMILES) | IC50 [1] [µM] | Kb [2, 3] [µM] | Kb [2, 4] [µM] |
| --- | --- | --- | --- |
| CCCCc1ncc2n1[C@@H](c1ccc(-c3ccccc3-c3nn[nH]n3)cc1)CC[C@H]2O (relative stereo) [Example 13, 3-Butyl-5,6,7,8-tetrahydro-5-[2'-(1H-tetrazol-5-yl)[1,1'-biphenyl]-4-yl]imidazo[1,5-a]pyridin-cis-8-ol] | 0.023 | 0.1 | 0.138 |
| CCCCc1ncc2n1[C@@H](c1ccc(-c3ccccc3-c3nn[nH]n3)cc1)CC[C@@H]2O (relative stereo) [Example 14, 3-Butyl-5,6,7,8-tetrahydro-5-[2'-(1H-tetrazol-5-yl)[1,1'-biphenyl]-4-yl]imidazo[1,5-a]pyridin-trans-8-ol] | 0.12 | 0.331 | 0.55 |
| CCCCc1ncc2n1[C@@H](c1ccc(-c3ccccc3-c3nn[nH]n3)cc1)CC[C@H]2CC(=O)OC(C)(C)C (relative stereo) [Example 19, 1,1-Dimethylethyl 3-butyl-5,6,7,8-tetrahydro-5-[2'-(1H-tetrazol-5-yl)[1,1'-biphenyl]-4-yl]imidazo[1,5-a]pyridin-cis-8-acetate] | 0.067 | 0.0708 | 0.141 |
| CCCCc1ncc2n1[C@@H](c1ccc(-c3ccccc3-c3nn[nH]n3)cc1)CC[C@H]2CC(=O)O (relative stereo) [Example 20, 3-Butyl-5,6,7,8-tetrahydro-5-[2'-(1H-tetrazol-5-yl)[1,1'-biphenyl]-4-yl]imidazo[1,5-a]pyridin-cis-8-acetic acid] | 0.24 | 0.129 | 0.141 |
| CCCCc1ncc2n1[C@H](c1ccc(-c3ccccc3-c3nnn[nH]3)cc1)CC[C@@H]2OCc1ccccc1 (relative stereo) [Example 24, 3-Butyl-5,6,7,8-tetrahydro-5-[2'-(1H-tetrazol-5-yl)[1,1'-biphenyl]-4-yl]-cis-8-phenylmethoxy-imidazo[1,5-a]pyridine] | 0.036 | – | – |
| CCCCc1nc(CCCC)n2c1C=CCC2c1ccc(-c2ccccc2-c2nnn[nH]2)cc1 (stereo not shown) [Example 1, 1,3-Dibutyl-5,6-dihydro-5-[2'-(1H-tetrazol-5-yl)[1,1'-biphenyl]-4-yl]imidazo[1,5-a]pyridine] | 0.19 | 0.398 | 0.537 |
| CCCCc1nc(CCCC)n2c1C=C(Br)CC2c1ccc(-c2ccccc2-c2nnn[nH]2)cc1 (stereo not shown) [Example 2, 7-Bromo-1,3-dibutyl-5,6-dihydro-5-[2'-(1H-tetrazol-5-yl)[1,1'-biphenyl]-4-yl]imidazo[1,5-a]pyridine] | 2.1 | 1.45 | 0.263 |
| CCCCc1nc(CCCC)n2c1CCCC2c1ccc(-c2ccccc2-c2nnn[nH]2)cc1 (stereo not shown) [Example 3, 1,3-Dibutyl-5,6,7,8-tetrahydro-5-[2'-(1H-tetrazol-5-yl)[1,1'-biphenyl]-4-yl]imidazo[1,5-a]pyridine] | 0.27 | 0.0537 | 0.224 |
| CCCCc1nc(CCCC)n2c1C(O)CCC2c1ccc(-c2ccccc2-c2nnn[nH]2)cc1 (stereo not shown) [Example 4, 1,3-Dibutyl-5,6,7,8-tetrahydro-5-[2'-(1H-tetrazol-5-yl)[1,1'-biphenyl]-4-yl]imidazo[1,5-a]pyridin-8-ol] | 0.051 | 0.0224 | 0.0145 |
| CCCCc1nc(CCCC)n2c1C(=O)CCC2c1ccc(-c2ccccc2-c2nn[nH]n2)cc1 (stereo not shown) [Example 5, 1,3-Dibutyl-5,6-dihydro-5-[2'-(1H-tetrazol-5-yl)[1,1'-biphenyl]-4-yl]imidazo[1,5-a]pyridin-8(5H)-one] | 0.06 | 0.0138 | 0.00708 |
| CCCCc1nc(CCCC)n2c1C(c1ccccc1)=CCC2c1ccc(-c2ccccc2-c2nnn[nH]2)cc1 (stereo not shown) [Example 6, 1,3-Dibutyl-5,6-dihydro-8-phenyl-5-[2'-(1H-tetrazol-5-yl)[1,1'-biphenyl]-4-yl]imidazo[1,5-a]pyridine] | 2.8 | – | – |
| CCCCc1nc(CCCC)n2c1C(=CC(=O)O)CCC2c1ccc(-c2ccccc2-c2nnn[nH]2)cc1 (stereo not shown) [Example 7, [1,3-Dibutyl-6,7-dihydro-5-[2'-(1H-tetrazol-5-yl)[1,1'-biphenyl]-4-yl]imidazo[1,5-a]pyridin-8(5H)-ylidene]acetic acid] | 15 | – | – |
| CCCCc1nc(CCCC)n2c1C(N1C(=O)CCC1=O)CCC2c1ccc(-c2ccccc2-c2nnn[nH]2)cc1 (stereo not shown) [Example 8, 1-[1,3-Dibutyl-5,6,7,8-tetrahydro-5-[2'-(1H-tetrazol-5-yl)[1,1'-biphenyl]-4-yl]imidazo[1,5-a]pyridin-8-yl]-2,5-pyrrolidinedione] | 0.027 | – | – |
| CCCCc1nc(CCCC)n2c1C(NC(=O)CCC(=O)NN)CCC2c1ccc(-c2ccccc2-c2nn[nH]n2)cc1 (stereo not shown) [Example 9] | 0.044 | 0.0708 | 0.0575 |
| CCCCc1nc(CCCC)n2c1C=CCCC2c1ccc(-c2ccccc2-c2nnn[nH]2)cc1 (stereo not shown) [Example 10, 1,3-Dibutyl-6,7-dihydro-5-[2'-(1H-tetrazol-5-yl)[1,1'-biphenyl]-4-yl]-5H-imidazo[1,5-a]azepine] | 0.33 | – | – |
| CCCCc1ncc2n1C(c1ccc(-c3ccccc3-c3nnn[nH]3)cc1)CC=C2 (stereo not shown) [Example 11, 3-Butyl-5,6-dihydro-5-[2'-(1H-tetrazol-5-yl)[1,1'-biphenyl]-4-yl]imidazo[1,5-a]pyridine] | 0.12 | – | – |
| CCCCc1ncc2n1C(c1ccc(-c3ccccc3-c3nn[nH]n3)cc1)CCC2=O (stereo not shown) [Example 12, 3-Butyl-5,6-dihydro-5-[2'-(1H-tetrazol-5-yl)[1,1'-biphenyl]-4-yl]imidazo[1,5-a]pyridin-8(5H)-one] | 0.11 | 0.219 | 0.0891 |
| CCCCc1ncc2n1C(c1ccc(-c3ccccc3-c3nnn[nH]3)cc1)CCC2=CC(=O)OC(C)(C)C (stereo not shown) [Example 15, 1,1-Dimethylethyl [3-butyl-6,7-dihydro-5-[2'-(1H-tetrazol-5-yl)[1,1'-biphenyl]-4-yl]imidazo[1,5-a]pyridin-8(5H)-ylidene]acetate] | 0.16 | 0.347 | 0.186 |
| CCCCc1ncc2n1C(c1ccc(-c3ccccc3-c3nnn[nH]3)cc1)CCC2=CC(=O)O (stereo not shown) [Example 16, [3-Butyl-6,7-dihydro-5-[2'-(1H-tetrazol-5-yl)[1,1'-biphenyl]-4-yl]imidazo[1,5-a]pyridin-8(5H)-ylidene]acetic acid] | 0.44 | 0.00776 | 0.0162 |
| CCCCc1ncc2n1C(c1ccc(-c3ccccc3-c3nnn[nH]3)cc1)CC=C2CC(=O)O (stereo not shown) [Example 18, 3-Butyl-5,6-dihydro-5-[2'-(1H-tetrazol-5-yl)[1,1'-biphenyl]-4-yl]imidazo[1,5-a]pyridin-8-acetic acid] | 0.2 | – | – |
